Tests used:
[1] = test system: HSC-T6 cells; assay: Sotalol and TGF-β1 co-culture, proliferation of hepatic stellate cells detected by CCK-8; type: cell-based, rat; details: sotalol 200, 400, 800, 1000 μM added 3 hours before TGF-β1 10 ng/ml; 48 hours incubation
Description: Experimental materials include HSC-T6 cells (also referred to as immortalized hepatic rat stellate cell line), a Dulbecco's modified Eagle's medium (DMEM) complete medium, a 96-well plate, a counting chamber (also referred to as hemocytometer), CCK-8 working solution, and the like. Experimental method are as follows. The HSC-T6 cells are cultured in the DMEM culture medium containing 10% fetal bovine serum, 1% double antibodies (penicillin-streptomycin solution) and 1% nonessential amino acid (NEAA) at 37° C. and 5% CO2, and the cells are digested by using trypsin for passage cultivation after the cells are converged to 80% to 90%. Next, the cells are inoculated in the plate, specifically, a density of 7×10^6 cells per liter (cells/L) cell suspension is taken and added at 100 μL cell suspension per well to the 96-well culture plate, each group has 6 replicate wells. […] After incubation for 48 hours, 100 μL of “10% CCK-8 and 90% medium” mixed solution is added to each well and incubated for 1 hour to 4 hours at 37° C., the wavelength is set at 450 nm, and absorbance value is read and recorded at the corresponding wavelength by using a fully-automated enzyme labeling instrument. Effects of sotalol on cell proliferation are detected by CCK-8, and an optimal time of action and an optimal drug concentration are screened.

[2] = test system: CCl4-induced liver fibrosis in mice; assay: CCl4-induced liver fibrosis in mice, HE staining and Sirius-red staining of liver tissue; type: in vivo
Description: Experimental materials include 60 healthy male C57 mice (20-25g/mouse), gavage needles, 1 milliliter (mL) syringes, CCl4 solution, olive oil and sotalol solution. Experimental method is as follows. The CCl4 solution is dissolved in the olive oil solution (CCl4: olive oil=1:[…]), prepared and used immediately, concentration is 0.1milliliters per 20 grams (0.1 mL/20 g), intragastrically administered twice a week for a total of 8 weeks to the mice. The sotalol solution is mixed with physiological saline, prepared and used immediately, concentration is 1 millimole per liter (mM), 0.2 mL/20 g, and intraperitoneally injected once a day for a total of 6-8 weeks to the mice. The mice are randomly divided into four groups: a. a normal control group; b. a model group, mice are intragastrically administered the CCl4 for 8 weeks; c. a CCl4 and sotalol group, mice are treated with the CCl4 alone for 2 weeks, followed by concurrent administration of the sotalol and CCl4 for 6 weeks; d. a sotalol group, mice are intraperitoneally injected the sotalol for 8 weeks. The mice are sacrificed in sequence at the 2nd, 4th, 6th, and 8th weeks of modeling, one for each group, liver samples of the mice are taken out and placed in a -80 Celsius degree (° C.) refrigerator for quick-frozen storage, and other livers are fixed in 4% paraformaldehyde for 24 hours and then embedded in paraffins. […] Then, all mice are sacrificed, and eyeball blood of mice is taken to measure liver function indexes (alanine transaminase abbreviated as ALT, aspartate transaminase abbreviated as AST). In addition, the liver tissue is fixed with formaldehyde and embedded in paraffins for later use.

[3] = test system: α-SMA, LC3, p62, ZO-1, N-cadherin, vimentin in HSC-T6 cells; assay: Expression of α-SMA, autophagy-related index and EMT markers in HSCs by Western-blot; type: cell-based, rat; details: sotalol 400 μM, TGF-β1 10 ng/mL, 48 hours
Description: Experimental materials include HSC-T6 cells, a DMEM complete medium, cell culture dishes, a cell lysis solution, a PBS solution, a BCA protein quantitative kit, defatted milk powder, primary antibodies and corresponding secondary antibodies related to α-SMA, autophagy and EMT. Experimental method are as follows. The experiment is grouped into a normal control group, a TGF-β 1 group, a sotalol +TGF-β1 group, and a sotalol group, where the stimulation concentration of the TGF-β1 is 10 ng/mL and concentration of the sotalol is 400 μM. The HSC-T6 cells are cultured by using cell culture dishes, incubated, dosed, and added with TGF-β1according to the conditions described in the embodiment 4. After 48 hours, the incubated cells are rinsed by the precooled PBS solution for 3-4 times, and residual PBS liquid is absorbed with a filter paper, 50 μL radioimmune precipitation assay (RIPA) and 0.5 μL (100:1) phenylmethanesulfonyl fluoride (PMSF) with […] concentration are added in a 50 mL culture flask and placed on ice for 30 minutes. Then, the protein is scraped by a cell scraper from the culture flask and suctioned out into the EP tubes, and centrifuged at 12000 rpm for 30 minutes at 4° C. A standard curve is made, 1 μL protein samples, 19 μL PBS solution and 200 μL (50:1) BCA working solution are added in each well of the 96-well plate, and two replicate wells are added per well. The 96-well plate is put in a 37° C. drying oven for 30 minutes. The OD value at 560 nm is measured by using an enzyme-linked immunosorbent assay on the machine to calculate the concentration of the protein. The protein is boiled in boiling water for 5 minutes before samples loading, and the samples are performed with gel electrophoresis, membrane transfer and blocking sequentially, then the treated samples are exposed after incubating with the primary antibodies and the secondary antibodies.

[4] = test system: α-SMA; assay: α-SMA expression in liver tissue detected by immunohistochemistry; type: in vivo; details: liver fibrosis mice induced by CCl4, treated with sotalol
Description: Experimental methods are as follows. The paraffin blocks prepared in the embodiment 1 are taken and performed immunohistochemistry according to the procedures after slicing into slices. The slices are soaked in 100%, 95%, 80%, and 75% ethanol for 5 minutes sequentially in that order, then rinsed them with the PBS solution, catalase is removed by using hydrogen peroxide, and antigens are repaired by sodium citrate repair solution. After cooling, the treated slices are rinsed with the PBS solution, sealed at room temperature for 30 minutes, then incubated overnight at 4° C. with primary antibodies, and incubated at room temperature with secondary antibodies for 1 hour on the next day. Then, the incubated slices are stained with diaminobenzidine (DAB), counterstained with hematoxylin, differentiated with hydrochloric acid alcohol, dehydrated, sealed, and finally observed and photographed under the microscope.

[5] = test system: α-SMA, LC3, p62, N-cadherin, vimentin, ZO-1 in liver tissue; assay: Expression of α-SMA, autophagy-related index and EMT markers in liver tissue by Western-blot; type: in vivo, mice; details: liver tissue induced by CCl4, after treatment with sotalol
From the text: Experimental materials include mouse liver tissue, a tweezer, a scissor, 2 millimeters (mm) steel balls, a magnet, a cell lysis solution, a PBS solution, a bicinchoninic acid (BCA) protein quantitative kit, defatted milk powder, and primary antibodies and corresponding secondary antibodies related to α-SMA, autophagy and EMT. Experimental method are as follows. The liver tissue in the embodiment 1 is taken about the size of a grain of rice by using the tweezer and the scissor, added to labeled 1.5 mL Eppendorf (EP) tubes, two 2 mm steel balls and 200-250 microliter (μL) cell lysis solution are added into each of the EP tubes, after the parameters are set, and the EP tubes are placed in the grinder for full grinding. Then, the steel balls are sucked out by using the magnet, and after being applied to the ice for 30 minutes, the EP tubes are centrifuged at 12000 revolutions per minute (rpm) for 30 minutes at 4° C. A standard curve is made, 1 μL protein samples, 19 μL PBS solution and 200 μL (50:1) BCA working solution are added in each well of a 96-well plate, and two replicate wells are added per well. The 96-well plate is put in a 37°° C. drying oven for 30 minutes. The optical density (OD) value at 560 nanometers (nm) is measured by using an enzyme-linked immunosorbent assay (ELISA) on the machine to calculate the concentration of the protein. The protein is boiled in boiling water for 5 minutes before samples loading, and the samples are performed with gel electrophoresis, membrane transfer and blocking sequentially, then the treated samples are exposed after incubating with the primary antibodies and the secondary antibodies.

[6] = CCl4 and sotalol group: CCl4 alone 2 weeks, then sotalol (1 mM, 0.2 mL/20 g, i.p. once a day) plus CCl4 for 6 weeks, vs model group

CC(C)NCC(O)c1ccc(NS(C)(=O)=O)cc1 (centres unmarked) [sotalol]
TGF-β1-induced proliferation trend of HSC-T6 cells (CCK-8) [1]: inhibited | degree of damage of the liver tissue (HE staining) [2, 6]: significantly reduced | degree of fibrous tissue proliferation (HE staining) [2, 6]: significantly reduced | collagen fibers (Sirius-red staining), induction of liver fibrosis by sotalol alone ([2]; sotalol group: sotalol 1 mM, 0.2 mL/20 g, i.p. once a day for 8 weeks, no CCl4): no obvious collagen fibers are observed | accumulation of P62 in HSCs (Western-blot) [3]: promoted | accumulation of ZO-1 in HSCs (Western-blot) [3]: promoted | expression of LC3 in HSCs (Western-blot) [3]: significantly inhibited | expression of N-cadherin in HSCs (Western-blot) [3]: inhibited | expression of vimentin in HSCs (Western-blot) [3]: inhibited | expression of α-SMA in HSCs (Western-blot) [3]: significantly reduced | expression of α-SMA in liver tissue (immunohistochemistry) [4]: down-regulate | accumulation of ZO-1 in liver tissue (Western-blot) [5]: promoted | accumulation of p62 in liver tissue (Western-blot) [5]: promoted | expression of LC3 in liver tissue (Western-blot) [5]: significantly reduced | expression of N-cadherin in liver tissue (Western-blot) [5]: inhibited | expression of vimentin in liver tissue (Western-blot) [5]: inhibited | expression of α-SMA in liver tissue (Western-blot) [5]: significantly reduced
